Molecular target: LRRK2 (Homo sapiens, UniProt Q5S007)
Experiment: LRRK2 WT assay (Assay B, radiometric 33P-ATP filter binding)
Assay type: biochemical
Conditions: Assay B (values marked *)
Protocol: LRRK2(human) is incubated with 50 mM HEPES pH 8.0, 0.2 mM EDTA, 0.01% Brij-35, 1% (w/v) BSA, 5 mM DTT, 250 Mm […], 10 mM Magnesium acetate and [[…]]-ATP (specific activity and concentration as required).
The reaction is initiated by the addition of the Mg/ATP mix.

Sequence of LRRK2 (Q5S007 whole entry): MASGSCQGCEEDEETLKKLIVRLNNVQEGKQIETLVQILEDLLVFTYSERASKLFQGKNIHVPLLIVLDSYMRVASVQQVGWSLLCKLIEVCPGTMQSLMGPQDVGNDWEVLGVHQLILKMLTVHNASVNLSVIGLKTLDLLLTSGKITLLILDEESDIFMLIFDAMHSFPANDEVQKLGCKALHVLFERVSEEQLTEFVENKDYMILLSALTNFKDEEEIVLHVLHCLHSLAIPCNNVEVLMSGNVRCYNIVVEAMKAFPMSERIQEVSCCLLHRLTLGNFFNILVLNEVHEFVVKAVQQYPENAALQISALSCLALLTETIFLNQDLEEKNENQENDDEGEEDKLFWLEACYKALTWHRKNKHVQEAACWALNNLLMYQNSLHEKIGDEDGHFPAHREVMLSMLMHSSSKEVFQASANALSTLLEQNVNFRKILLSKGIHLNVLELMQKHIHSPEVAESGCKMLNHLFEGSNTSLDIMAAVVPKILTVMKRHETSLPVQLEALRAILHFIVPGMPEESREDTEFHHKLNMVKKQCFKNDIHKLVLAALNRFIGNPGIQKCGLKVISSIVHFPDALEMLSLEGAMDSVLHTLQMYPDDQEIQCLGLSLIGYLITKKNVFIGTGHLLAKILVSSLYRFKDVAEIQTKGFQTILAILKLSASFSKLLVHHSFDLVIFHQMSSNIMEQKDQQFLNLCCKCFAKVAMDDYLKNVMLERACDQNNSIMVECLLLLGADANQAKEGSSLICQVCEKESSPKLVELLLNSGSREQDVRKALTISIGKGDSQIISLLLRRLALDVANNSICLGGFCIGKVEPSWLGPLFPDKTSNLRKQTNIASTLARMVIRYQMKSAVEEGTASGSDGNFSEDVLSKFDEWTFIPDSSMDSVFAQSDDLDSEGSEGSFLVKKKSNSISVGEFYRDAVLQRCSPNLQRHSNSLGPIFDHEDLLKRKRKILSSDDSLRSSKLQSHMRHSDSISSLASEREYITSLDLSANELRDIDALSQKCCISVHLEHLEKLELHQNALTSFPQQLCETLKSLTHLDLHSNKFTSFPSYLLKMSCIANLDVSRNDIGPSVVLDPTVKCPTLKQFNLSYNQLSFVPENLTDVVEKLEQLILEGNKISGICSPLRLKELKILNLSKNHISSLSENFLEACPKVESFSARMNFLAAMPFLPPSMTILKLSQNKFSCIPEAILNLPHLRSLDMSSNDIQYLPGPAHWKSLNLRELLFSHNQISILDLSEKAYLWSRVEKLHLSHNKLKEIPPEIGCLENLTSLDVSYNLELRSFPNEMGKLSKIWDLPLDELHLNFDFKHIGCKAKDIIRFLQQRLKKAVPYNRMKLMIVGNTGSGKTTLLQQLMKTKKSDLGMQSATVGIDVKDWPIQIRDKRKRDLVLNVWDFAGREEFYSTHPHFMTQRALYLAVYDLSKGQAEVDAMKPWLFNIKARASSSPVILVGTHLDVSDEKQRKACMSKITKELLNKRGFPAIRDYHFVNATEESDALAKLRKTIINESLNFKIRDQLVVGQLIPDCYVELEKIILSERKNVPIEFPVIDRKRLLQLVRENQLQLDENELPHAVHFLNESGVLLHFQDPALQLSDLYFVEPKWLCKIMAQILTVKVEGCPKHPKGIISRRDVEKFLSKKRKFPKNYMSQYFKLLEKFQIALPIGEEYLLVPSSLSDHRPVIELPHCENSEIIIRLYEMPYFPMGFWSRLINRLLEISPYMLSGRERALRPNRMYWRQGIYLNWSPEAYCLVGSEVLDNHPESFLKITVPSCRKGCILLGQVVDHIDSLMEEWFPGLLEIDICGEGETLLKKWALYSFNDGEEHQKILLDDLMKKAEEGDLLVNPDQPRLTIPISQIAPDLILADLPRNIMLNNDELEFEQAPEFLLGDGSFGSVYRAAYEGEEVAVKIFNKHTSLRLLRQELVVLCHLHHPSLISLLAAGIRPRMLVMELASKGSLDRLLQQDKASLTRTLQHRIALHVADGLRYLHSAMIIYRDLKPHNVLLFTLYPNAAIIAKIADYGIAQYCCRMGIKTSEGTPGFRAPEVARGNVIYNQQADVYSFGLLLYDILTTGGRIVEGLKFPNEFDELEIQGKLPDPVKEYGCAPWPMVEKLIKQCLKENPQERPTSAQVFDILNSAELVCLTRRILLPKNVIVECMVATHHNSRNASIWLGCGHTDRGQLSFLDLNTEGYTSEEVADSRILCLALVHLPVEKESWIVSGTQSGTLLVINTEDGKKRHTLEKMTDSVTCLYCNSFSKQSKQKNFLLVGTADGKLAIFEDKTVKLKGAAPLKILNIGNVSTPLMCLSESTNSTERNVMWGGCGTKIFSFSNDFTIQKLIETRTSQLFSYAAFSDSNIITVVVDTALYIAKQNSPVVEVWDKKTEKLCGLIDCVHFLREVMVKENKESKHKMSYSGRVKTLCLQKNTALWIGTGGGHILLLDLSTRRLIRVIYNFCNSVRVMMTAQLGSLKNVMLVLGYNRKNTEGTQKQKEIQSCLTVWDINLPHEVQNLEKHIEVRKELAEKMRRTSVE

Point of comparison: `CO[C@H]1COC[C@H]1n1c(C#N)cc2cnc(Nc3cn(C)nc3OC(C)C)nc21` [Example 62, 2-((3-Isopropoxy-1-methyl-1H-pyrazol-4-yl)amino)-7-((3R,4R)-4-methoxytetrahydrofuran-3-yl)-7H-pyrrolo[2,3-d]pyrimidine-6-carbonitrile], IC50 114 nM. Against it:
- Cn1cc(Nc2ncc3cc(C#N)n(C4CCOC4)c3n2)c(OC2COC2)n1 (single isomer, unassigned) [Example 52, 2-((1-methyl-3-(oxetan-3-yloxy)-1 H-pyrazol-4-yl)amino)-7-(tetrahydrofuran-3-yl)-7H-pyrrolo[2,3-d]pyrimidine-6-carbonitrile] — 4.4-fold lower, 26 nM
- Cn1cc(Nc2ncc3cc(C#N)n(C4CCOC4)c3n2)c(OC2COC2)n1 (single isomer, unassigned) [Example 53, 2-((1-methyl-3-(oxetan-3-yloxy)-1 H-pyrazol-4-yl)amino)-7-(tetrahydrofuran-3-yl)-7H-pyrrolo[2,3-d]pyrimidine-6-carbonitrile] — 2.3-fold higher, 266 nM
- CO[C@H]1COC[C@H]1n1c(C#N)cc2cnc(Nc3cn(C(C)C#N)nc3OC(C)C)nc21 (single isomer, unassigned) [Example 57] — 4.2-fold lower, 27 nM
- Cn1cc(Nc2ncc3cc(C#N)n(C4CCCOC4)c3n2)c(OC2COC2)n1 (single isomer, unassigned) [Example 81, 2-((1-methyl-3-(oxetan-3-yloxy)-1 H-pyrazol-4-yl)amino)-7-(tetrahydro-2H-pyran-3-yl)-7H-pyrrolo[2,3-d]pyrimidine-6-carbonitrile] — 1.6-fold higher, 183 nM
- Cn1cc(Nc2ncc3cc(C#N)n(C4CCCOC4)c3n2)c(OC2COC2)n1 (single isomer, unassigned) [Example 82, 2-((1-methyl-3-(oxetan-3-yloxy)-1 H-pyrazol-4-yl)amino)-7-(tetrahydro-2H-pyran-3-yl)-7H-pyrrolo[2,3-d]pyrimidine-6-carbonitrile] — within 1.5-fold, 104 nM
- C[C@@H]1COCC[C@H]1n1c(C#N)cc2cnc(Nc3cn(C)nc3OC3COC3)nc21 (single isomer, unassigned) [Example 83, 2-((1-methyl-3-(oxetan-3-yloxy)-1 H-pyrazol-4-yl)amino)-7-((trans)-3-methyltetrahydro-2H-pyran-4-yl)-7H-pyrrolo[2,3-d]pyrimidine-6-carbonitrile] — within 1.5-fold, 134 nM
- C[C@@H]1COCC[C@H]1n1c(C#N)cc2cnc(Nc3cn(C)nc3OC3COC3)nc21 (single isomer, unassigned) [Example 84, 2-((1-methyl-3-(oxetan-3-yloxy)-1 H-pyrazol-4-yl)amino)-7-((trans)-3-methyltetrahydro-2H-pyran-4-yl)-7H-pyrrolo[2,3-d]pyrimidine-6-carbonitrile] — 16-fold lower, 7 nM
- CC1COCCC1n1c(C#N)cc2cnc(Nc3cn(C)nc3OC3COC3)nc21 (single isomer, unassigned) [Example 85, ((1-methyl-3-(oxetan-3-yloxy)-1 H-pyrazol-4-yl)amino)-7-((cis)-3-methyltetrahydro-2H-pyran-4-yl)-7H-pyrrolo[2,3-d]pyrimidine-6-carbonitrile] — 2.8-fold lower, 41 nM
- CC1COCCC1n1c(C#N)cc2cnc(Nc3cn(C)nc3OC3COC3)nc21 (single isomer, unassigned) [Example 86, ((1-methyl-3-(oxetan-3-yloxy)-1 H-pyrazol-4-yl)amino)-7-((cis)-3-methyltetrahydro-2H-pyran-4-yl)-7H-pyrrolo[2,3-d]pyrimidine-6-carbonitrile] — 3.8-fold higher, 435 nM
- CO[C@H]1COC[C@H]1n1c(C#N)cc2cnc(Nc3cn(C(C)C#N)nc3OC3CC3)nc21 (stereo partly drawn) [Example 58, 2-((1-(1-Cyanoethyl)-3-cyclopropoxy-1H-pyrazol-4-yl)amino)-7-((3R,4R)-4-methoxytetrahydrofuran-3-yl)-7H-pyrrolo[2,3-d]pyrimidine-6-carbonitrile] — 7.6-fold lower, 15 nM
- CO[C@H]1COC[C@H]1n1c(C#N)cc2cnc(Nc3cn(C(C)(C)C#N)nc3OC3CC3)nc21 [Example 59, 2-((1-(2-Cyanopropan-2-yl)-3-cyclopropoxy-1H-pyrazol-4-yl)amino)-7-((3R,4R)-4-methoxytetrahydrofuran-3-yl)-7H-pyrrolo[2,3-d]pyrimidine-6-carbonitrile] — 3.7-fold lower, 31 nM
- CO[C@H]1COC[C@H]1n1c(C#N)cc2cnc(Nc3cn(C(C)(C)C#N)nc3OC(C)C)nc21 [Example 60, 2-((1-(2-Cyanopropan-2-yl)-3-isopropoxy-1H-pyrazol-4-yl)amino)-7-((3R,4R)-4-methoxytetrahydrofuran-3-yl)-7H-pyrrolo[2,3-d]pyrimidine-6-carbonitrile] — 2.7-fold lower, 42 nM
- CO[C@H]1COC[C@H]1n1c(C#N)cc2cnc(Nc3cn(C(C)C)nc3OC3CC3)nc21 [Example 61, 2-((3-Cyclopropoxy-1-isopropyl-1H-pyrazol-4-yl)amino)-7-((3R,4R)-4-methoxytetrahydrofuran-3-yl)-7H-pyrrolo[2,3-d]pyrimidine-6-carbonitrile] — within 1.5-fold, 133 nM
- CO[C@H]1COC[C@H]1n1c(C#N)cc2cnc(Nc3cn(C4COC4)nc3OC(C)C)nc21 [Example 63, 2-((3-Isopropoxy-1-(oxetan-3-yl)-1H-pyrazol-4-yl)amino)-7-((3R,4R)-4-methoxytetrahydrofuran-3-yl)-7H-pyrrolo[2,3-d]pyrimidine-6-carbonitrile] — 1.8-fold higher, 201 nM
- CO[C@H]1COC[C@H]1n1c(C#N)cc2cnc(Nc3cn(C4COC4)nc3OC3CC3)nc21 [Example 64, 2-((3-Cyclopropoxy-1-(oxetan-3-yl)-1H-pyrazol-4-yl)amino)-7-((3R,4R)-4-methoxytetrahydrofuran-3-yl)-7H-pyrrolo[2,3-d]pyrimidine-6-carbonitrile] — within 1.5-fold, 135 nM
- CO[C@H]1COC[C@H]1n1c(C#N)cc2cnc(Nc3cn(C)nc3OC3CC(F)(F)C3)nc21 [Example 65, 2-((3-(3,3-Difluorocyclobutoxy)-1-methyl-1H-pyrazol-4-yl)amino)-7-((3R,4R)-4-methoxytetrahydrofuran-3-yl)-7H-pyrrolo[2,3-d]pyrimidine-6-carbonitrile] — 1.6-fold higher, 187 nM
- CC[C@@H](C)Oc1nn(C)cc1Nc1ncc2cc(C#N)n([C@@H]3COC[C@@H]3OC)c2n1 [Example 66, 2-((3-((R)-sec-Butoxy)-1-methyl-1H-pyrazol-4-yl)amino)-7-((3R,4R)-4-methoxytetrahydrofuran-3-yl)-7H-pyrrolo[2,3-d]pyrimidine-6-carbonitrile] — within 1.5-fold, 119 nM
- CC[C@H](C)Oc1nn(C)cc1Nc1ncc2cc(C#N)n([C@@H]3COC[C@@H]3OC)c2n1 [Example 67, 2-((3-((S)-sec-Butoxy)-1-methyl-1H-pyrazol-4-yl)amino)-7-((3R,4R)-4-methoxytetrahydrofuran-3-yl)-7H-pyrrolo[2,3-d]pyrimidine-6-carbonitrile] — 2.6-fold higher, 297 nM
- CO[C@H]1COC[C@H]1n1c(C#N)cc2cnc(Nc3ccnc4c3OC(C)(C)CC4)nc21 [Example 68, 2-((2,2-Dimethyl-3,4-dihydro-2H-pyrano[3,2-b]pyridin-8-yl)amino)-7-((3R,4R)-4-methoxytetrahydrofuran-3-yl)-7H-pyrrolo[2,3-d]pyrimidine-6-carbonitrile] — higher, > 1000 nM
- CO[C@H]1COC[C@H]1n1c(C#N)cc2cnc(Nc3ccnc4c3O[C@H](C)CCO4)nc21 [Example 69, 7-((3R,4R)-4-Methoxytetrahydrofuran-3-yl)-2-(((R)-2-methyl-3,4-dihydro-2H-[1,4]dioxepino[2,3-b]pyridin-9-yl)amino)-7H-pyrrolo[2,3-d]pyrimidine-6-carbonitrile] — 5.2-fold higher, 597 nM
